Consider 18 molecules from patent publication US12091405B2, “Substituted pyrazole compounds as indoleamine 2,3-dioxygenase inhibitors” (Merck Sharp & Dohme LLC, priority 2018, dated 2024).

The experiment deals with IDO1 (Homo sapiens, UniProt P14902). The experiment is described as follows: IDO1 Cellular Assay in HeLa Cells Stimulated with IFNγ. Type of experiment: cell-based. To be noted: IFNγ 100 ng/mL, 300 uM L-tryptophan, about 48 hours, fluorescence readout, read-out: IDO1 HELA Cell Assay, IC50.
Sequence of IDO1 (P14902 whole entry): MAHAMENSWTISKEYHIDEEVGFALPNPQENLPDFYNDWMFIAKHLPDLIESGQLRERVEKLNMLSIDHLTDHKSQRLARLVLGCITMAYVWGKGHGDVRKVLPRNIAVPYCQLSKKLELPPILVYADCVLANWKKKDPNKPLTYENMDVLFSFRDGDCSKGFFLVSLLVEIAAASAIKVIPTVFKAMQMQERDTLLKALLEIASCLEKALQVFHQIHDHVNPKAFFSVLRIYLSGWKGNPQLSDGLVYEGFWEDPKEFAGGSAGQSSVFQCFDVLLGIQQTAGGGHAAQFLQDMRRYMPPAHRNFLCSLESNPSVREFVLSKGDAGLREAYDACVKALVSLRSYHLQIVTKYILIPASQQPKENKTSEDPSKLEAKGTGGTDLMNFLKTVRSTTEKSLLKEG

In general, IC50 refers to the concentration that gives 50% inhibition. Regarding `Cc1cc(C2CCN(C(=O)Cn3nc(C(=O)N4C[C@@H](C)O[C@@H](C)C4)c4c3CCC4)CC2)cc(C)c1Cl` [Example 116, 1-[4-(4-chloro-3,5-dimethylphenyl)piperidin-1-yl]-2-{3-[(2R,6S)-2,6-dimethylmorpholine-4-carbonyl]-5,6-dihydrocyclopenta[c]pyrazol-1(4H)-yl}ethan-1-one], the IC50 worked out at 48.6 nM. The value for `C[C@@H]1CN(C(=O)c2nn(CC(=O)N3CCC(c4cc(F)cc(F)c4F)CC3)c3c2CCC3)C[C@H](C)O1` [Example 117, 2-{3-[(2R,6S)-2,6-dimethylmorpholine-4-carbonyl]-5,6-dihydrocyclopenta[c]pyrazol-1(4H)-yl}-1-[4-(2,3,5-trifluorophenyl)piperidin-1-yl]ethan-1-one] was 48.9 nM; that for `C[C@@H]1CN(C(=O)c2nn(CC(=O)N3CCC(c4cccc(F)c4C(F)(F)F)CC3)c3c2CCC3)C[C@H](C)O1` [Example 118, 2-{3-[(2R,6S)-2,6-dimethylmorpholine-4-carbonyl]-5,6-dihydrocyclopenta[c]pyrazol-1(4H)-yl}-1-{4-[3-fluoro-2-(trifluoromethyl)phenyl]piperidin-1-yl}ethan-1-one] was 49.8 nM; that for `Cc1ccc(F)c(C2CCN(C(=O)Cn3nc(C(=O)N4C[C@@H](C)O[C@@H](C)C4)c4c3CCC4)CC2)c1` [Example 119, 2-{3-[(2R,6S)-2,6-dimethylmorpholine-4-carbonyl]-5,6-dihydrocyclopenta[c]pyrazol-1(4H)-yl}-1-[4-(2-fluoro-5-methylphenyl)piperidin-1-yl]ethan-1-one] was 52.1 nM. The value for `Cc1ccc(C2CCN(C(=O)Cn3nc(C(=O)N4C[C@@H](C)O[C@@H](C)C4)c4c3CCC4)CC2)cc1C(F)(F)F` [Example 120, 2-{3-[(2R,6S)-2,6-dimethylmorpholine-4-carbonyl]-5,6-dihydrocyclopenta[c]pyrazol-1(4H)-yl}-1-{4-[4-methyl-3-(trifluoromethyl)phenyl]piperidin-1-yl}ethan-1-one] was 52.5 nM; that for `C[C@@H]1CN(C(=O)c2nn(CC(=O)N3CCC(c4cccc(F)c4F)CC3)c3c2CCC3)C[C@H](C)O1` [Example 121, 1-[4-(2,3-difluorophenyl)piperidin-1-yl]-2-{3-[(2R,6S)-2,6-dimethylmorpholine-4-carbonyl]-5,6-dihydrocyclopenta[c]pyrazol-1(4H)-yl}ethan-1-one] was 53.2 nM; that for `Cc1c(Cl)cc(Cl)cc1C1CCN(C(=O)Cn2nc(C(=O)N3C[C@@H](C)O[C@@H](C)C3)c3c2CCC3)CC1` [Example 122, 1-[4-(3,5-dichloro-2-methylphenyl)piperidin-1-yl]-2-{3-[(2R,6S)-2,6-dimethylmorpholine-4-carbonyl]-5,6-dihydrocyclopenta[c]pyrazol-1(4H)-yl}ethan-1-one] was 54.5 nM.

For the molecule `C[C@@H]1CN(C(=O)c2nn(CC(=O)N3CCC(c4ccc(Cl)c(Cl)c4)CC3)c3c2CCC3)C[C@H](C)O1` [Example 123, 1-[4-(3,4-dichlorophenyl)piperidin-1-yl]-2-{3-[(2R,6S)-2,6-dimethylmorpholine-4-carbonyl]-5,6-dihydrocyclopenta[c]pyrazol-1(4H)-yl}ethan-1-one], the IC50 was 54.5 nM. Consider `C[C@@H]1CN(C(=O)c2nn(CC(=O)N3CCC(c4ccc(F)cc4Cl)CC3)c3c2CCC3)C[C@H](C)O1` [Example 124, 1-[4-(2-chloro-4-fluorophenyl)piperidin-1-yl]-2-{3-[(2R,6S)-2,6-dimethylmorpholine-4-carbonyl]-5,6-dihydrocyclopenta[c]pyrazol-1(4H)-yl}ethan-1-one], for which the IC50 came out at 57 nM.

With `C[C@@H]1CN(C(=O)c2nn(CC(=O)N3CCC(c4cccc(C5(C)CC5)c4)CC3)c3c2CCC3)C[C@H](C)O1` [Example 125, 2-{3-[(2R,6S)-2,6-dimethylmorpholine-4-carbonyl]-5,6-dihydrocyclopenta[c]pyrazol-1(4H)-yl}-1-{4-[3-(1-methylcyclopropyl)phenyl]piperidin-1-yl}ethan-1-one], the IC50 worked out at 57.7 nM.

Take `C[C@@H]1CN(C(=O)c2nn(CC(=O)N3CCC(c4cc(F)c(F)c(F)c4)CC3)c3c2CCC3)C[C@H](C)O1` [Example 126, 2-{3-[(2R,6S)-2,6-dimethylmorpholine-4-carbonyl]-5,6-dihydrocyclopenta[c]pyrazol-1(4H)-yl}-1-[4-(3,4,5-trifluorophenyl)piperidin-1-yl]ethan-1-one]: the IC50 is 59 nM.

For the molecule `Cc1ccc(C2CCN(C(=O)Cn3nc(C(=O)N4C[C@@H](C)O[C@@H](C)C4)c4c3CCC4)CC2)cc1` [Example 127, 2-{3-[(2R,6S)-2,6-dimethylmorpholine-4-carbonyl]-5,6-dihydrocyclopenta[c]pyrazol-1(4H)-yl}-1-[4-(4-methylphenyl)piperidin-1-yl]ethan-1-one], the IC50 is 61.1 nM. Take `C[C@@H]1CN(C(=O)c2nn(CC(=O)N3CCC(c4ccc(F)c(F)c4F)CC3)c3c2CCC3)C[C@H](C)O1` [Example 128, 2-{3-[(2R,6S)-2,6-dimethylmorpholine-4-carbonyl]-5,6-dihydrocyclopenta[c]pyrazol-1(4H)-yl}-1-[4-(2,3,4-trifluorophenyl)piperidin-1-yl]ethan-1-one]: the IC50 turned out to be 64.1 nM.

As for `Cc1c(C#N)cccc1C1CCN(C(=O)Cn2nc(C(=O)N3C[C@@H](C)O[C@@H](C)C3)c3c2CCC3)CC1` [Example 129, 3-[1-({3-[(2R,6S)-2,6-dimethylmorpholine-4-carbonyl]-5,6-dihydrocyclopenta[c]pyrazol-1(4H)-yl}acetyl)piperidin-4-yl]-2-methylbenzonitrile], the IC50 stood at 64.1 nM. The value for `C[C@@H]1CN(C(=O)c2nn(CC(=O)N3CCC(c4cccc(F)c4)CC3)c3c2CCC3)C[C@H](C)O1` [Example 130, 2-{3-[(2R,6S)-2,6-dimethylmorpholine-4-carbonyl]-5,6-dihydrocyclopenta[c]pyrazol-1(4H)-yl}-1-[4-(3-fluorophenyl)piperidin-1-yl]ethan-1-one] was 66.1 nM; that for `C[C@@H]1CN(C(=O)c2nn(CC(=O)N3CCC(c4ccc(C5CC5)cc4)CC3)c3c2CCC3)C[C@H](C)O1` [Example 131, 1-[4-(4-cyclopropylphenyl)piperidin-1-yl]-2-{3-[(2R,6S)-2,6-dimethylmorpholine-4-carbonyl]-5,6-dihydrocyclopenta[c]pyrazol-1(4H)-yl}ethan-1-one] was 77.9 nM; that for `C[C@@H]1CN(C(=O)c2nn(CC(=O)N3CCC(c4cc(F)c(F)c(F)c4Cl)CC3)c3c2CCC3)C[C@H](C)O1` [Example 132, 1-[4-(2-chloro-3,4,5-trifluorophenyl)piperidin-1-yl]-2-{3-[(2R,6S)-2,6-dimethylmorpholine-4-carbonyl]-5,6-dihydrocyclopenta[c]pyrazol-1(4H)-yl}ethan-1-one] was 80.2 nM. The value for `C[C@@H]1CN(C(=O)c2nn(CC(=O)N3CCC(c4ccc(F)c(C(F)F)c4)CC3)c3c2CCC3)C[C@H](C)O1` [Example 133, 1-{4-[3-(difluoromethyl)-4-fluorophenyl]piperidin-1-yl}-2-{3-[(2R,6S)-2,6-dimethylmorpholine-4-carbonyl]-5,6-dihydrocyclopenta[c]pyrazol-1(4H)-yl}ethan-1-one] was 81.7 nM.
